From patent US7968599B2, “Fast release solid formulation, preparation and use thereof” (Intervet International B.V., priority 2007, dated 2011)

Assay: Dissolution / solubility rate profile, USP apparatus 2 with paddle agitation
Format: physicochemical
Details: Milli-Q water 25° C., paddle 50 rpm, final 0.1 mg/mL florfenicol
Description: To determine the solubility profile of different formulations, dissolution was performed using USP apparatus 2 with paddle agitation at 50 rpm. The dissolution medium was Milli-Q water maintained at a temperature of 25° C. The formulations were added directly to the water in the correct amount to achieve a final concentration of 0.1 mg/mL of florfenicol. Aliquots of the resulting solution were withdrawn and analyzed using either UV-VIS spectrophotometry or HPLC, the latter to exclude excipient contribution or degradation of florfenicol. For HPLC analysis, an organic/aqueous mobile phase was used for the separation on a C18, reverse phase column. Detection was performed by UV absorption spectrometry. The percent dissolved was calculated versus an external reference standard prepared at the nominal concentration of the analyte.

CS(=O)(=O)c1ccc([C@@H](O)[C@@H](CF)NC(=O)C(Cl)Cl)cc1 (relative stereo) [florfenicol, [R-(R*,S*)]-2,2-Dichloro-N-[1-(fluoromethyl)-2-hydroxy-2-[4-(methylsulfonyl)phenyl]-ethyl]acetamide]
percent florfenicol dissolved within 15 minutes (15 minutes): approximately 25%
percent florfenicol dissolved within 60 minutes (60 minutes): approximately 43%
